Biological target: T1, human chemokine receptor 2 isoform B (Homo sapiens, UniProt P41597)
T1 construct: host or cells: CHOK1-CCR2B-A5 (CHO-K1)
T1 sequence (P41597 1-360 isoform P41597-2): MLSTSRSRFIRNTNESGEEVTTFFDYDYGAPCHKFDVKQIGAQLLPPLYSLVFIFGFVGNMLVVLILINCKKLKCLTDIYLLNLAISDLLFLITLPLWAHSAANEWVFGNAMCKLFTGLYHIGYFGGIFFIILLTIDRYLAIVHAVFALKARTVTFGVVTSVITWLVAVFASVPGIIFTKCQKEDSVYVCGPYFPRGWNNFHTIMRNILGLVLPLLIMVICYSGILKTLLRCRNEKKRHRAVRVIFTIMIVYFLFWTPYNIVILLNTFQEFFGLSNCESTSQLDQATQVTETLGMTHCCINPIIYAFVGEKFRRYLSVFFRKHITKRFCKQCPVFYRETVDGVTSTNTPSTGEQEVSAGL
Assay: Calcium mobilization assay (FLIPR, CHOK1-CCR2B-A5 cells, 20 nM MCP-1)
Format: cell-based
Conditions: Ca mobilisation assay, CCR2, antagonist activity vs 20 nM MCP-1
Summary of the method: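 Antagonism read as IC50 against 20 nM MCP-1-evoked calcium rise (peak minus baseline Fluo-4 signal, FLIPR) in CCR2B-overexpressing CHO-K1 cells. Compounds were preincubated 20-30 min at 30 °C, with agonist activity recorded for 80 s on addition.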

Row | IC50 [nM] | Structure (SMILES)
1 | 706 | COC1CCN(CCCN2CCN(C(=O)/C=C/c3ccc(Cl)c(Cl)c3)CCC2=O)CC1 [Example 79, 1-[(E)-3-(3,4-Dichloro-phenyl)-acryloyl]-4-[3-(4-methoxy-piperidin-1-yl)-propyl]-[1,4]diazepan-5-one]
2 | 297 | CCOC(=O)NC1CCN(CCCN2CCN(C(=O)/C=C/c3ccc(Cl)c(Cl)c3)CCC2=O)CC1 [Example 82, [1-(3-{4-[(E)-3-(3,4-Dichloro-phenyl)-acryloyl]-7-oxo-[1,4]diazepan-1-yl}-propyl)-piperidin-4-yl]-carbamic acid ethyl ester]
3 | 223 | O=C1NCC2(CCN(CCCN3CCN(C(=O)/C=C/c4ccc(Cl)c(Cl)c4)CCC3=O)CC2)O1 [Example 84, 8-(3-{4-[(E)-3-(3,4-Dichloro-phenyl)-acryloyl]-7-oxo-[1,4]diazepan-1-yl}-propyl)-1-oxa-3,8-diaza-spiro[4.5]decan-2-one]
4 | 1170 | O=C(/C=C/c1ccc(Cl)c(Cl)c1)N1CCC(=O)N(CCCN2CCC(O)(c3ncco3)CC2)CC1 [Example 85, 1-[(E)-3-(3,4-Dichloro-phenyl)-acryloyl]-4-[3-(4-hydroxy-4-oxazol-2-yl-piperidin-1-yl)-propyl]-[1,4]diazepan-5-one]
5 | 1080 | CNC(=O)C1CCN(CCCN2CCN(C(=O)/C=C/c3ccc(Cl)c(Cl)c3)CCC2=O)CC1 [Example 86, 1-(3-{4-[(E)-3-(3,4-Dichloro-phenyl)-acryloyl]-7-oxo-[1,4]diazepan-1-yl}-propyl)-piperidine-4-carboxylic acid methylamide]
6 | 315 | O=C1CC2(CCN(CCCN3CCN(C(=O)/C=C/c4ccc(Cl)c(Cl)c4)CCC3=O)CC2)C(=O)N1 [Example 87, 8-(3-{4-[(E)-3-(3,4-Dichloro-phenyl)-acryloyl]-7-oxo-[1,4]diazepan-1-yl}-propyl)-2,8-diaza-spiro[4.5]decane-1,3-dione]
7 | 757 | O=C1CC2(CCN(CCCN3CCN(C(=O)/C=C/c4ccc(Cl)c(Cl)c4)CCC3=O)CC2)CN1 [Example 88, 8-(3-{4-[(E)-3-(3,4-Dichloro-phenyl)-acryloyl]-7-oxo-[1,4]diazepan-1-yl}-propyl)-2,8-diaza-spiro[4.5]decan-3-one]
8 | 148 | O=C(/C=C/c1ccc(Cl)c(Cl)c1)N1CCC(=O)N(CCCN2CCC[C@@H](O)C2)CC1 [Example 91, (R)-1-[(E)-3-(3,4-Dichloro-phenyl)-acryloyl]-4-[3-(3-hydroxy-piperidin-1-yl)-propyl]-[1,4]diazepan-5-one]
9 | 189 | O=C(/C=C/c1ccc(Cl)c(Cl)c1)N1CCC(=O)N(CCCN2CCC[C@H](O)C2)CC1 [Example 92, (S)-1-[(E)-3-(3,4-Dichloro-phenyl)-acryloyl]-4-[3-(3-hydroxy-piperidin-1-yl)-propyl]-[1,4]diazepan-5-one]
10 | 1140 | O=C(/C=C/c1ccc(Cl)c(Cl)c1)N1CCC(=O)N(CCN2CCC(O)(c3ccccc3)CC2)CC1 [Example 96, 1-[(E)-3-(3,4-Dichloro-phenyl)-acryloyl]-4-[3-(4-hydroxy-4-phenyl-piperidin-1-yl)-ethyl]-[1,4]diazepan-5-one]
11 | 1220 | O=C(/C=C/c1ccc(Cl)c(Cl)c1)N1CCC(=O)N(CCN2CCC(O)(c3cccnc3)CC2)CC1 [Example 99, 1-[(E)-3-(3,4-Dichloro-phenyl)-acryloyl]-4-[3-(4′-hydroxy-3′,4′,5′,6′-tetrahydro-2′H-[3,4′]bipyridinyl-1′-yl)-ethyl]-[1,4]diazepan-5-one]
12 | 388 | O=C(/C=C/c1ccc(Cl)c(Cl)c1)N1CCC(=O)N(CCNC2CCOCC2)CC1 [Example 103, 1-[(E)-3-(3,4-Dichloro-phenyl)-acryloyl]-4-[3-(tetrahydro-pyran-4-ylamino)-ethyl]-[1,4]diazepan-5-one]
13 | 806 | O=C(C=Cc1ccc(Cl)c(Cl)c1)N1CCC(=O)N(CCNC2CCC(O)(c3ccccn3)CC2)CC1 (stereo not drawn) [Example 105, trans-1-[(E)-3-(3,4-Dichloro-phenyl)-acryloyl]-4-[3-(4-hydroxy-4-pyridin-2-yl-cyclohexylamino)-ethyl]-[1,4]diazepan-5-one]
14 | 523 | O=C(/C=C/c1ccc(Cl)c(Cl)c1)N1CCC(=O)N(CCN[C@H]2CC[C@H](O)CC2)CC1 [Example 106, trans-1-[(E)-3-(3,4-Dichloro-phenyl)-acryloyl]-4-[2-(4-hydroxy-cyclohexylamino)-ethyl]-[1,4]diazepan-5-one]
15 | 1200 | O=C(/C=C/c1ccc(Cl)c(Cl)c1)N1CCC(=O)N(CCNC2CCCC2)CC1 [Example 108, 4-[3-(Cyclopentyl-amino)-ethyl]-1-[(E)-3-(3,4-dichloro-phenyl)-acryloyl]-[1,4]diazepan-5-one]
16 | 521 | CN(CCN1CCN(C(=O)/C=C/c2ccc(Cl)c(Cl)c2)CCC1=O)C1CCCC1 [Example 109, 4-[-3-(Cyclopentyl-methyl-amino)-ethyl]-1-[(E)-3-(3,4-dichloro-phenyl)-acryloyl]-[1,4]diazepan-5-one]
17 | 459 | O=C(/C=C/c1ccc(Cl)c(Cl)c1)N1CCC(=O)N(CCN2CCC[C@H]2CO)CC1 [Example 117, (S)-1-[(E)-3-(3,4-Dichloro-phenyl)-acryloyl]-4-[3-(2-hydroxymethyl-pyrrolidin-1-yl)-ethyl]-[1,4]diazepan-5-one]
18 | 1140 | CC1CCN(CCN2CCN(C(=O)/C=C/c3ccc(Cl)c(Cl)c3)CCC2=O)CC1 [Example 120, 1-[(E)-3-(3,4-Dichloro-phenyl)-acryloyl]-4-[3-(4-methyl-piperidin-1-yl)-ethyl]-[1,4]diazepan-5-one]
19 | 600 | CN(CCN1CCN(C(=O)/C=C/c2ccc(Cl)c(Cl)c2)CCC1=O)C1CCOCC1 [Example 134, 1-[(E)-3-(3,4-Dichloro-phenyl)-acryloyl]-4-{3-[methyl-(tetrahydro-pyran-4-yl)-amino]-ethyl}-[1,4]diazepan-5-one]
20 | 688 | CC(C)N1CCC(NCCN2CCN(C(=O)/C=C/c3ccc(Cl)c(Cl)c3)CCC2=O)CC1 [Example 136, 1-[(E)-3-(3,4-Dichloro-phenyl)-acryloyl]-4-[2-(1-isopropyl-piperidin-4-ylamino)-ethyl]-[1,4]diazepan-5-one]
21 | 446 | C[N+]1(CCCN2CCN(C(=O)/C=C/c3ccc(Cl)c(Cl)c3)CCC2=O)CCC2(CC1)NC(=O)NC2=O (stereo not shown) [Example 153, 8-(3-{4-[(E)-3-(3,4-Dichloro-phenyl)-acryloyl]-7-oxo-[1,4]diazepan-1-yl}-propyl)-8-methyl-2,4-dioxo-1,3-diaza-8-azonia-spiro[4.5]decane iodide]
22 | 373 | C[N+]1(CCCN2CCN(C(=O)C=Cc3ccc(Cl)c(Cl)c3)CCC2=O)CCCCC1 [Example 154, 1-(3-{4-[3-(3,4-Dichloro-phenyl)-acryloyl]-7-oxo-[1,4]diazepan-1-yl}-propyl)-1-methyl-piperidinium iodide]
23 | 370 | O=C(/C=C/c1ccc(Cl)c(Cl)c1)N1CCC(=O)N(CCCCN2CCOCC2)CC1 [Example 155, 1-[(E)-3-(3,4-Dichloro-phenyl)-acryloyl]-4-(4-morpholin-4-yl-butyl)-[1,4]diazepan-5-one]
24 | 703 | O=C(/C=C/c1ccc2ccccc2c1)N1CCC(=O)N(CCCN2CCCCC2)CC1 [Example 157, 1-((E)-3-Naphthalen-2-yl-acryloyl)-4-(3-piperidin-1-yl-propyl)-[1,4]diazepan-5-one]
25 | 258 | O=C(/C=C/c1ccc(Cl)c(Cl)c1)N1CCC(=O)N(CCCN2CCC(O)CC2)CC1 [Example 159, 1-[(E)-3-(3,4-Dichloro-phenyl)-acryloyl]-4-[3-(4-hydroxy-piperidin-1-yl)-propyl]-[1,4]diazepan-5-one]
26 | 319 | O=C(/C=C/c1ccc(Cl)c(Cl)c1)N1CCC(=O)N(CCCCCN2CCCCC2)CC1 [Example 162, 1-[(E)-3-(3,4-Dichloro-phenyl)-acryloyl]-4-(5-piperidin-1-yl-pentyl)-[1,4]diazepan-5-one]
27 | 28 | O=C(/C=C/c1ccc(Cl)c(Cl)c1)N1CCC(=O)N(C[C@@H](O)CN2CCCCC2)CC1 [Example 167, 1-[(E)-3-(3,4-Dichloro-phenyl)-acryloyl]-4-((S)-2-hydroxy-3-piperidin-1-yl-propyl)-[1,4]diazepan-5-one]
28 | 105 | O=C(/C=C/c1ccc(Cl)c(Cl)c1)N1CCC(=O)N(CC[C@@H](O)CN2CCCCC2)CC1 [Example 172, 1-[(E)-3-(3,4-Dichloro-phenyl)-acryloyl]-4-((R)-3-hydroxy-4-piperidin-1-yl-butyl)-[1,4]diazepan-5-one]
29 | 96 | O=C(/C=C/c1ccc(F)c(Cl)c1)N1CCC(=O)N(C[C@@H](O)CN2CCCCC2)CC1 [Example 175, 1-[(E)-3-(3-Chloro-4-fluoro-phenyl)-acryloyl]-4-((S)-2-hydroxy-3-piperidin-1-yl-propyl)-[1,4]diazepan-5-one]
30 | 201 | O=C(/C=C/c1ccc(Cl)c(Cl)c1)N1CCC(=O)N(CC[C@H](O)CN2CCCCC2)CC1 [Example 178, 1-[(E)-3-(3,4-Dichloro-phenyl)-acryloyl]-4-((S)-3-hydroxy-4-piperidin-1-yl-butyl)-[1,4]diazepan-5-one]

Row | Structure (SMILES) | IC50 [nM]
31 | N#CC1(c2ccccc2)CCN(CCN2CCN(C(=O)/C=C/c3ccc(Cl)c(Cl)c3)CCC2=O)CC1 [Example 101, 1-(-3-{4-[(E)-3-(3,4-Dichloro-phenyl)-acryloyl]-7-oxo-[1,4]diazepan-1-yl}-ethyl)-4-phenyl-piperidine-4-carbonitrile] | 1230
